# Measurements taken from PubChem BioAssay AID588780 (Sanford-Burnham Center for Chemical Genomics, 2011).
# Active and inactive are the calls of the source.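 The calls were made as follows: active = compounds whose fitted half-maximal concentration in the cell-protection dose series is at or below a set limit; inactive = the rest.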
# Test system: H9c2 cardiomyocytes, 2-deoxyglucose stress, ATP luminescence, 2 h
# Test: protection of cardiomyocytes from 2-deoxyglucose injury, dose response, cell-based, 2-deoxyglucose stress, uHTS hits (AID 588780)
row,SMILES,IC50
1,COc1cc2c(cc1OC)C(COc1ccc3c(C)cc(=O)oc3c1)N(C(=O)c1ccco1)CC2 (centres undefined),10.1 µM
2,CC(=O)N1CCN(c2ccccc2NC(=O)c2ccc(-c3cccc([N+](=O)[O-])c3)o2)CC1,5.88 µM
3,Cc1nc2ccccc2c(=O)[nH]1,> 79 µM (inactive)
4,O=C(Cn1[nH]c(=O)c2ccccc2c1=O)NCC1COc2ccccc2O1 (centres undefined),> 79 µM (inactive)
5,O=c1c2ccccc2nc2c3ccccc3c(NCCO)nn12,45.5 µM (inactive)
6,COc1ccc(CC(=O)N(Cc2ccccc2)c2ccccc2)cc1S(=O)(=O)N1CCOCC1,> 79 µM (inactive)
7,COc1ccc(C(C(=O)NCc2ccccc2)N(Cc2cccs2)C(=O)c2cnccn2)cc1 (centres undefined),16.1 µM
8,CC(C)(C)OC(=O)CNC(=O)c1[nH]cnc1C(=O)Nc1ccc(CNC(=O)OC(C)(C)C)cc1,> 79 µM (inactive)
9,CCCCNC(=O)c1cn(-c2ccc(OCC)cc2)c(=O)c2cc(OC)c(OC)cc12,41.7 µM (inactive)
10,O=C(NC1CCCCC1)C(c1ccc2ncccc2c1)N(Cc1cccs1)C(=O)c1cccs1 (centres undefined),22 µM
11,O=c1[nH]nc(-c2ccc(NCCO)c([N+](=O)[O-])c2)c2ccccc12,> 79 µM (inactive)
12,COc1ccc(-c2cc(NC=O)c3ncc(-c4ccccc4)n3c2)cc1OC,> 79 µM (inactive)
13,COc1cc(/C=C/c2nnc3c4ccccc4ncn23)cc(OC)c1OC,> 79 µM (inactive)
14,O=C(CCc1nc2ccccc2c(=O)[nH]1)N1CCCc2ccccc21,> 79 µM (inactive)
15,O=c1[nH]c2cc(F)ccc2c2ccc(F)cc12,73.6 µM (inactive)
16,Cc1ccc(C)c(S(=O)(=O)N2CCN(C(=O)CCc3nc4ccccc4c(=O)[nH]3)CC2)c1,> 79 µM (inactive)
17,COc1cccc(C(=O)Nc2cccc(-c3nnc(-c4ccco4)o3)c2)c1,> 79 µM (inactive)
18,COc1ccc(-c2csc(NC(=O)c3ccc(OCC(=O)N4CCOCC4)c(OC)c3)n2)cc1OC,> 79 µM (inactive)
19,COc1ccccc1C(=O)Nc1nc(-c2ccc3c(c2)OCCO3)cs1,> 79 µM (inactive)
20,COc1ccc(OCC(=O)NCc2n[nH]c(=O)c3ccccc23)cc1,> 79 µM (inactive)
21,Fc1ccc(-n2cc(-c3ccccc3)c3c(N4CCOCC4)ncnc32)cc1,> 79 µM (inactive)
22,O=C(NNC(=O)c1ccccc1OCc1ccccc1Cl)c1csc(N2CCOCC2)n1,22.4 µM
23,CC(C)(C)NC(=O)c1cc(NC(=O)c2cccs2)cc(NC(=O)c2cccs2)c1,> 79 µM (inactive)

row,SMILES,IC50
1,O=C(CCc1nc2ccccc2c(=O)[nH]1)OCc1nnc(-c2ccccc2)o1,> 79 µM (inactive)
2,COCCn1ccc2c(OCC(=O)Nc3ccccc3OC)cccc2c1=O,20.8 µM
3,COc1ccc2nc(Nc3nc(CSc4nc5ccccc5[nH]4)cc(=O)[nH]3)nc(C)c2c1,> 79 µM (inactive)
4,CCCN1Cc2cccc(C(N)=O)c2C1=O,> 79 µM (inactive)
5,COc1ccc(CCNC(=O)c2cc3c(C)nccc3[nH]c2=O)cc1OC,16.3 µM
6,COc1ccc(-c2cc3nc(C)cc(N4CCN(C(=O)c5ccoc5)CC4)n3n2)cc1,51.7 µM (inactive)
7,O=C(COC(=O)Cn1[nH]c(=O)c2ccccc2c1=O)NNC(=O)c1ccc(Br)cc1,> 79 µM (inactive)
8,CN(C)C(=O)C1C2NC(=S)N(c3cccc(Cl)c3)C1(C)Oc1ccc(Cl)cc12 (centres undefined),66.7 µM (inactive)
9,c1cncc(-c2nc(NCC3COc4ccccc4O3)c3ccccc3n2)c1 (centres undefined),> 79 µM (inactive)
10,COc1ccc2[nH]c(=O)c(CN(Cc3nnnn3Cc3ccccc3)CC3CCCO3)cc2c1 (centres undefined),> 79 µM (inactive)
11,COC(=O)c1cc(Cl)c(NC(=O)/C=C/c2ccc(OC)c(OC)c2)cc1OC,> 79 µM (inactive)
12,COc1cc(-c2cnc3c(NC=O)cc(-c4ccsc4)cn23)cc(OC)c1OC,> 79 µM (inactive)
13,C[C@@H]1ON(C)[C@H]2C[C@H]3c4[nH]c5ccc(-c6ccc7c(c6)OCO7)cc5c4CCN3C[C@@H]12,54.8 µM (inactive)
14,CC12C=CC(=O)CC1CCC1C2CCC2(C)C(O)C(O)CC12 (centres undefined),12.3 µM
15,O=c1[nH]n(Cc2ccccc2)c(=O)c2ccccc12,> 79 µM (inactive)
16,CCSc1nnc(N)s1,> 79 µM (inactive)
17,CCOc1ccc2[nH]c(=O)c(CN(Cc3nnnn3Cc3ccco3)C3CCCCC3)cc2c1,> 79 µM (inactive)
18,O=C(COC(=O)c1ccc([N+](=O)[O-])o1)Nc1cccc(S(=O)(=O)N2CCCCC2)c1,> 79 µM (inactive)
19,CC(C)C(=O)N1CCN(c2ccc(NC(=O)COc3ccccc3[N+](=O)[O-])cc2)CC1,> 79 µM (inactive)
20,CC(NC(=O)Cn1nc(C(=O)O)c2ccccc2c1=O)c1ccccc1 (centres undefined),> 79 µM (inactive)
21,Cc1c(C#N)c(N)nc2c3c(sc12)NC(=O)CC3c1ccc(Cl)cc1 (centres undefined),19.7 µM
22,Cc1cc(C)nc(SCc2ccc(C(=O)N/N=C/c3ccccn3)cc2)n1,> 79 µM (inactive)
23,Cc1cc(Cl)ccc1OCCCC(=O)NNC(=O)c1ccccc1O,> 79 µM (inactive)

row,SMILES,IC50
1,CC(=O)c1ccc(-c2[nH]c3ccccc3c2CCN2C(=O)c3ccccc3C2=O)cc1,> 79 µM (inactive)
2,O=C(N/N=C/c1ccccn1)c1ccc(NC(=O)c2cccc([N+](=O)[O-])c2)cc1,11.5 µM
3,CC1(NC(=O)CCc2nc3ccccc3c(=O)[nH]2)CCS(=O)(=O)C1 (centres undefined),> 79 µM (inactive)
4,N#CC(c1nc2ccccc2nc1N1CCCC1)S(=O)(=O)c1cccs1 (centres undefined),34.1 µM (inactive)
5,COc1ccccc1-c1cc(NC(C)=O)c2ncc(-c3cccc(C(C)=O)c3)n2c1,13.5 µM
6,Cc1ccc(N=Cc2cc(Cl)cc(Cl)c2O)nc1,> 79 µM (inactive)
7,O=C(COC(=O)Cc1n[nH]c(=O)c2ccccc12)Nc1ncc(Cl)cc1Cl,> 79 µM (inactive)
8,Cc1c(/C=N/NC(=O)c2ccc(O)cc2)c2ccccn2c1C(=O)c1ccc(F)cc1,> 79 µM (inactive)
9,COCCCn1c(C)nc2c(c1=O)c1nc3ccccc3nc1n2CCc1ccccc1,> 79 µM (inactive)
10,CC(=O)c1c(C)n(-c2cccc(Cl)c2)c2ccc(O)cc12,16.8 µM
11,COC(=O)c1cc2ccccn2c2c(C(=O)OC)c(C(=O)OC)cc1-2,> 79 µM (inactive)
12,Cc1cccc(N2CCN(C(=O)CCc3nc4ccccc4c(=O)[nH]3)CC2)c1C,> 79 µM (inactive)
13,CCn1c(=O)cc(OCC(=O)Nc2ccccc2C#N)c2ccccc21,> 79 µM (inactive)
14,Cc1cccc(NC(=O)c2nc[nH]c2C(=O)NCCCCNC(=O)c2[nH]cnc2C(=O)Nc2cccc(C)c2)c1,> 79 µM (inactive)
15,Cc1cc2[nH]c(=O)c3ccccc3n2n1,> 79 µM (inactive)
16,COc1ccc(-c2nnc3sc(-c4ccco4)nn23)cc1OC,> 79 µM (inactive)
17,CC(C)=NNc1cnnc2ccc([N+](=O)[O-])cc12,12.2 µM
18,COc1ccc(-c2cc(=O)c3ccccc3[nH]2)cc1,65 µM (inactive)
19,COc1ccc(C(=O)O/N=C(/c2ccccc2)c2ccncc2)cc1OC,> 79 µM (inactive)
20,COc1ccc(C(=O)COc2ccccc2C(N)=O)cc1,> 79 µM (inactive)
21,CN1CCc2nc3ccccc3c(C(=O)OCC(=O)N(CCC#N)c3ccccc3)c2C1,67.6 µM (inactive)
22,COc1ccc(C(C)=O)cc1COC(=O)Cc1n[nH]c(=O)c2ccccc12,> 79 µM (inactive)
23,Cc1cc(OCC(=O)N2CCOCC2)cc2oc(=O)c3ccccc3c12,14.7 µM
